Series [1] can be described thus: Aerosolization performance (fine particle mass / fine particle fraction, Next Generation Impactor). Particulars: 7% w/w blend strength with 60 μm coarse lactose LH200. The format is physicochemical. The procedure: The expression “respirable fraction” refers to an index of the percentage of active particles which would reach the lungs in a patient. The respirable fraction is evaluated using a suitable in vitro apparatus such as Andersen Cascade Impactor (ACI), Multi Stage Liquid Impinger (MSLI) or Next Generation Impactor (NGI), according to procedures reported in common Pharmacopoeias, in particular in the European Pharmacopeia (Eur. Ph.) 7.3, 7th Edition, which is incorporated herein by reference in its entirety.
In this example, a dry powder blend formulation of carboxamide hydrochloride and lactose monohydrate was obtained and utilized to provide the MGR002 and MGR003 products. To achieve a FPM of 128 μg of MGR002, it has been determined that a 7% w/w carboxamide hydrochloride dry powder blend was required. The formulation included coarse lactose only (LH200, D50 of 60 μm), with a 5% w/w API overage to account for losses during the blending process. […]
Aerosolization performance information was obtained for the same batches of MGR002 and MGR003 as were used in obtaining emitted data. FIG. 3 illustrates the aerosolization performance as measured by fine particle mass (FPM) obtained from 6 devices from each MGR002 and MGR003 product. […]

Series [2] can be described thus: Equivalence of TIR and FPM between products (ratio of geometric means, NGI). The format is physicochemical. The source says: Aerosolization performance information was obtained for the same batches of MGR002 and MGR003 as were used in obtaining emitted data. FIG. 3 illustrates the aerosolization performance as measured by fine particle mass (FPM) obtained from 6 devices from each MGR002 and MGR003 product. FIG. 4 and Table 37 below present the results and equivalence criteria, respectively for carboxamide hydrochloride of formula II. The results in Table 37 are listed in terms of total impactor recovery (TIR) and fine particle mass (FPM) for MGR001, MGR002 and MGR003, carboxamide compound, salmeterol and fluticasone propionate.
The mean particle mass (FPM) and mean total impactor recovery (TIR) from a next generation impactor (NGI) for each batch were equivalent, based on the fact that the upper/lower 90% confidence interval of the ratio of the geometric mean, and fell between 0.90 and 1.11. […] The fluticasone propionate and salmeterol xinafoate components of the MGR003 drug product also met the same performance targets as the MGR001 250/50 drug product.

The text below walks through data of US20230293430A1, “FORMULATIONS INCLUDING 5-[3-(3-HYDROXYPHENOXY)AZETIDIN-1-YL]-5-METHYL-2,2-DIPHENYLHEXANAMIDE” (Mylan Pharma UK Limited, priority 2020, published 2023).

Molecules are shown by their SMILES.

Consider `CC(C)(CCC(C(N)=O)(c1ccccc1)c1ccccc1)N1CC(Oc2cccc(O)c2)C1.Cl` [Carboxamide Hydrochloride, 5-[3-(3-Hydroxyphenoxy)azetidin-1-yl]-5-methyl-2,2-diphenylhexanamide hydrochloride], for which the “fine particle mass (FPM) achieved” value in series [1] stood at 138 µg. In addition, the “FPM: ratio of geometric means (MGR002 divided by MGR003)” value in series [2] (fine particle mass) amounted to 0.95. Besides, the “TIR: ratio of geometric means (MGR002 divided by MGR003)” value in series [2] (total impactor recovery) is recorded as 0.97.
As to `CCC(=O)O[C@]1(C(=O)SCF)[C@H](C)C[C@H]2[C@@H]3C[C@H](F)C4=CC(=O)C=C[C@]4(C)[C@@]3(F)[C@@H](O)C[C@@]21C` [Fluticasone propionate, fluticasone propionate], the “FPM: ratio of geometric means (MGR001 divided by MGR003)” value in series [2] (fine particle mass) is recorded as 0.99. Further, in series [2] (total impactor recovery), the “TIR: ratio of geometric means (MGR001 divided by MGR003)” value turned out to be 0.96.
Turning to `OCc1cc(C(O)CNCCCCCCOCCCCc2ccccc2)ccc1O` (stereo not shown) [Salmeterol, salmeterol xinafoate], the “FPM: ratio of geometric means (MGR001 divided by MGR003)” value in series [2] (fine particle mass) worked out at 1.01. Moreover, in series [2] (total impactor recovery), the “TIR: ratio of geometric means (MGR001 divided by MGR003)” value was 0.97.
